Publication PMC4384643 (Molecular cell, 2015)
Entries after “also recorded” stand apart in the source; their conditions may differ.

Key:
[1] = tested on: BCL-2; settings: ref Souers et al., 2013; cited from earlier work
[2] = tested on: BAX; experiment: BAX/BCL-2 co-immunoprecipitation in HeLa cells; type: binding; settings: HeLa cells co-expressing full-length BAX and BCL-2; BCL-2 antibody IP

Row | Molecule | BCL-2 inhibitory activity [1] | co-immunoprecipitation of BAX with BCL-2 [2]
1 | CC1(C)CCC(CN2CCN(c3ccc(C(=O)NS(=O)(=O)c4ccc(NCC5CCOCC5)c([N+](=O)[O-])c4)c(Oc4cnc5[nH]ccc5c4)c3)CC2)=C(c2ccc(Cl)cc2)C1 [ABT-199] | selective BCL-2 inhibitor | –
2 | BCL-2 L23A: L23A point mutant of BCL-2 protein | – | impaired by L23A mutagenesis of the BCL-2 BH4 domain; also recorded: less effective at co-immunoprecipitating BAX relative to wild-type BCL-2
